Assay results published in patent publication US20220062199A1, “PH[…] ACTIVATOR COMPOUNDS, COMPOSITIONS, METHODS AND USES THEREOF” (SOCIETE DES PRODUITS NESTLE S.A., priority 2019, published 2022).

Tests used:
AMPKα2β1γ1 = molecular target: T1, AMPKα2β1γ1 (Homo sapiens, UniProt P54619+P54646+Q9Y478); test: Activation of bacterially-expressed AMPKα2β1γ1 in vitro (HTRF-KinEASE Cisbio assay); assay type: biochemical; settings: CaMKKβ-phosphorylated purified AMPK, varying concentrations, 30 mins, FIG. 1
T1 construct: His; made in house; host or cells: bacteria
Protocol: The AMPK heterotrimers were expressed in bacteria and purified through the His-α subunit by nickel purification before further purification through gel filtration. After being phosphorylated by incubation with CaMKKβ, AMPK complexes were further purified with a final gel filtration purification step. Phosphorylated purified AMPK was incubated with varying concentrations of Compound 1 or 2 for 30 mins using substrate and reagents from the HTRF-KinEASE Cisbio assay kit (STK S1 Kit). Phosphorylation of the substrate was measured by incubating with donor and acceptor antibodies for 2 h at room temperature as per the manufacturer's protocol (Coulerie et al., (2016) PMID: 27792327) and phosphorylated peptide detected by performing HTRF. The 665 nm/620 nm ratio was determined and plotted vs the log of the concentration of ligand.

[1] = tested on: phosphorylation of the AMPK substrate, acetyl-CoA carboxylase (ACC), in U2OS Flp-In T-REx mammalian cells; test: pACC HTRF assay: phosphorylation of the AMPK substrate ACC in U2OS Flp-In T-REx cells; assay type: cell-based; settings: varying concentrations, 1 h, media lacking FBS, FIG. 2
Protocol: U2OS Flp-In T-REx cells were first seeded at 50 K in a 96-well plate and left overnight at 37 C in DMEM GlutaMAX (Thermo Fisher Scientific) supplemented with 10% (vol/vol) FBS and 100 U/ml penicillin G, and 100 μg/ml streptomycin. Cells were treated for 1 h with varying concentrations of Lusianthridin in media lacking FBS and then cells were lysed in 50 μl of Cisbio lysis buffer #1 supplemented with blocking solution as per the manufacturer's protocol (Cisbio). Cells were lysed for 30 mins at room temperature before 16 μl of lysate was incubated with 4 μl of the HTRF antibodies (1:40 dilution of the acceptor and donor (p)ACC antibodies, as per the manufacturers protocol). Lysates were incubated overnight with the antibodies before 665 nm/620 nm ratio was determined using a MolecularDevices i3 plate reader (with a HTRF cartridge add-on).

T1 sequence (P54646 whole entry): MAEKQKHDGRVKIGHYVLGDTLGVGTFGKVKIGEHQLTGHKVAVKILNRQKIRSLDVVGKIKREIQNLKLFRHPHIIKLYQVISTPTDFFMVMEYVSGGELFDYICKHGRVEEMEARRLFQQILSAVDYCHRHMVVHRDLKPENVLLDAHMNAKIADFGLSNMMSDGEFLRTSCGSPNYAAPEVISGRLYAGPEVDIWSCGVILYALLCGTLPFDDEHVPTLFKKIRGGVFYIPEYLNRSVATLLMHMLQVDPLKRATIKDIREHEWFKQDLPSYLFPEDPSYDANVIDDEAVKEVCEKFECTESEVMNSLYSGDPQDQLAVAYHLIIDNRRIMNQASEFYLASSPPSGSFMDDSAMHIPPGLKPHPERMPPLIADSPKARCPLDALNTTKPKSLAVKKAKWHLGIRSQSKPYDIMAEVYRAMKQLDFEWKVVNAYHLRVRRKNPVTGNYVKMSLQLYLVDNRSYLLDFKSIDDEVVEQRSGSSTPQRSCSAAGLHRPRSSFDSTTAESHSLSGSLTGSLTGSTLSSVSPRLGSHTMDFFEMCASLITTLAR
T1 sequence (Q9Y478 whole entry): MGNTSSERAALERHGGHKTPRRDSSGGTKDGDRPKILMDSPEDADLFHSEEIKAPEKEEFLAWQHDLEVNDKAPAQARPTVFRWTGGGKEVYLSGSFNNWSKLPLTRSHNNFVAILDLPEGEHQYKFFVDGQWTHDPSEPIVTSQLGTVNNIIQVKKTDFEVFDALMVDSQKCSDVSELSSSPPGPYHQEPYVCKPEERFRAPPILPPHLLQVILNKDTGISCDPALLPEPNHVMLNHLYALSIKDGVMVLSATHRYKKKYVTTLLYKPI
T1 sequence (P54619 whole entry): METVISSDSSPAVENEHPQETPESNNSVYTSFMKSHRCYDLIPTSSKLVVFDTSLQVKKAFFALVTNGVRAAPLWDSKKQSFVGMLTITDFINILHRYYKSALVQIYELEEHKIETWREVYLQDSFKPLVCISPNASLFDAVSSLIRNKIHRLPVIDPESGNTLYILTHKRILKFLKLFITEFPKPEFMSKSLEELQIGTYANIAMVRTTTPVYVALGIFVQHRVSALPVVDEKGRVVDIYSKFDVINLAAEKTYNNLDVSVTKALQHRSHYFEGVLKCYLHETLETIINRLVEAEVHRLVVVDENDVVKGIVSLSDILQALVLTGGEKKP

SMILES | activation of AMPK complexes in vitro (substrate phosphorylation, 665 nm/620 nm HTRF ratio vs log concentration) (AMPKα2β1γ1) | phosphorylation of the AMPK substrate ACC (665 nm/620 nm HTRF ratio) [1]
COc1cc(O)c2c(ccc3cc(O)ccc32)c1 [Compound 1, 7-Methoxyphenanthrene-2,5-diol] | directly activate AMPK complexes in vitro | increase the phosphorylation of the AMPK substrate, ACC, in a dose-dependent manner
COc1cc(O)c2c(ccc3cccc(O)c32)c1 [Compound 2, 2-Methoxyphenanthrene-4,5-diol] | directly activate AMPK complexes in vitro | increase the phosphorylation of the AMPK substrate, ACC, in a dose-dependent manner
